Consider five molecules from publication PMC6152416, “Pharmacological and Toxicological Screening of Novel Benzimidazole-Morpholine Derivatives as Dual-Acting Inhibitors” (Molecules : A Journal of Synthetic Chemistry and Natural …, 2017).

SMILES strings stand for the structures.

One series concerns the target T1, human recombinant MAO-A (Homo sapiens, UniProt P21397).
T1 sequence (P21397 1-527): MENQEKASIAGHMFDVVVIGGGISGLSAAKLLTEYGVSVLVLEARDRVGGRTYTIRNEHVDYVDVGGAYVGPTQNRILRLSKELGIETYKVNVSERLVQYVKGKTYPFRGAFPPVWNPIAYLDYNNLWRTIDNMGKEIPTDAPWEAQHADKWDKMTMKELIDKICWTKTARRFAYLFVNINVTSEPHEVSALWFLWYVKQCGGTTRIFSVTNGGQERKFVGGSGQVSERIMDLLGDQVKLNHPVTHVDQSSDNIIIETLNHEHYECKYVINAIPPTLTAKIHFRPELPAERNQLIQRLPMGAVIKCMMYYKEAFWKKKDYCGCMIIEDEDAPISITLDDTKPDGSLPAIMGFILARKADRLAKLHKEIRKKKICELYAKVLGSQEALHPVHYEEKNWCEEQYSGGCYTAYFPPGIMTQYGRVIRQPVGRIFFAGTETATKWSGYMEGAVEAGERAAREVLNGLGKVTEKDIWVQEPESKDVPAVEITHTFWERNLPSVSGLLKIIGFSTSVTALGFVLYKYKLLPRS
Nature of the series: MAO inhibition assay (kynuramine, fluorimetric). Format: biochemical.

Series [1] is described as follows: Ames MPF genotoxicity assay. Format: cell-based, Salmonella typhimurium. Particulars: Salmonella typhimurium; TA100, with/without S9, each concentration level; read-out: fold inductions over baseline. On the procedure:
The genotoxicity of selected compounds (2b, 2j, 2m) was determined by Ames assay using Ames MPF 98/100 mutagenicity assay sample kit (Xenometrix AG, Allschwil, Switzerland) as previously described elsewhere. Salmonella typhimurium strains, TA98 (frameshift mutations) and TA100 (base-pair substitutions) were used in the assay. The concentration of the compounds was between 16 and 5000 μg/mL, in accordance with the guideline. Compounds were prepared in six different concentrations (5.0, 2.5, 1.25, 0.625, 0.3125, 0.156 mg/mL) in DMSO. Mutagenic potential was determined in the absence or presence of Aroclor™-1254 induced male Sprague–Dawley rat liver microsomal enzyme (S9) mix (Xenometrix AG). Positive controls without S9 mix were 2-nitrofluorene (2.0 μg/mL) and 4-nitroquinoline N-oxide (0.1 μg/mL), whereas 1.0 μg/mL and 2.5 μg/mL of 2-aminoanthracene solutions were used as positive controls with S9 against TA98 and TA100, respectively. Solvent control was prepared with 4% DMSO. The end of an experiment was determined by the change of the indicator medium colour to yellow, which was originating from the decrease of pH due to revertant bacteria. Yellow wells were counted as positive, and compared with the negative control. Fold induction over the negative control and fold induction over the baseline were calculated (Fold induction over the negative control is accepted as the ratio of the mean number of positive wells for the dose concentration divided by the mean number of positive wells for the zero dose (negative) control. Fold induction over the baseline is accepted as the ratio of the mean number of positive wells for the dose concentration divided by zero dose baseline. The zero-dose baseline is obtained by adding one standard deviation to the mean number of positive wells of the zero dose control. If the baseline is less than 1, the value is set to 1 for calculation).
Mutagenicity was determined according to the criteria reported previously. For a baseline value of ≤3, significant increases between 2 and 3-fold of the baseline were classified as weak mutagen, and increases ≥3-fold of the baseline were classified as mutagen. […] As a rule, at least two adjacent doses with significant increases or a significant increase at the highest dose level should be observed for a mutagenic compound. All of the doses were compared according to Student’s t-test at p < 0.05 for statistical significance.

`Clc1ccc(-c2nc3ccccc3n2CCN2CCOCC2)cc1` [Compound 2c, 2-(4-Chlorophenyl)-1-[2-(morpholin-4-yl)ethyl]-1H-benzimidazole]: the entries for the “MAO-A Inhibition (%)” value at human recombinant MAO-A (10^-3 M) and on human recombinant MAO-A (10^-4 M) were 31.58% and 26.17%, respectively.

Consider `FC(F)(F)Oc1ccc(-c2nc3ccccc3n2CCN2CCOCC2)cc1` [Compound 2m, 2-(4-Trifluoromethoxyphenyl)-1-[2-(morpholin-4-yl)ethyl]-1H-benzimidazole], for which the “MAO-A Inhibition (%)” value at human recombinant MAO-A (10^-3 M) stood at 34.29%; on human recombinant MAO-A (10^-4 M), 16.39%. Also, the fold induction in series [1] was below 1.5.

`CCOc1ccc(-c2nc3ccccc3n2CCN2CCOCC2)cc1` [Compound 2j, 2-(4-Ethoxyphenyl)-1-[2-(morpholin-4-yl)ethyl]-1H-benzimidazole]: the “MAO-A Inhibition (%)” value stood at 28.47% at human recombinant MAO-A (10^-3 M) and 19.42% at human recombinant MAO-A (10^-4 M).

For `COc1ccc(-c2nc3ccccc3n2CCN2CCOCC2)cc1` [Compound 2b, 2-(4-Methoxyphenyl)-1-[2-(morpholin-4-yl)ethyl]-1H-benzimidazole], the figures for the “MAO-A Inhibition (%)” value on human recombinant MAO-A (10^-3 M) and at human recombinant MAO-A (10^-4 M) were 29.44% and 24.61%, respectively. Moreover, the fold induction in series [1] is below 1.5.

For the molecule `CC(C)c1ccc(-c2nc3ccccc3n2CCN2CCOCC2)cc1` [Compound 2e, 2-(4-Isopropylphenyl)-1-[2-(morpholin-4-yl)ethyl]-1H-benzimidazole], the results for the “MAO-A Inhibition (%)” value at human recombinant MAO-A (10^-3 M) and on human recombinant MAO-A (10^-4 M) were 24.29% and 17.31%, respectively.
